According to ChEMBL document CHEMBL1132849, “Amidinohydrazones as guanidine bioisosteres: application to a new class of potent, selective and orally bioavailable, non-amide-based small-molecule thrombin inhibitors” (Bioorg Med Chem Lett, 2000):
Where “and” joins values, the source holds several entries; their conditions need not be identical. Equal entries are not always repeated. One block for each compound: values may come before it.

Assays:
[1] = Partition coefficient ( LogP) of the compound; assay type: physicochemical; details: octanol/water
Canis familiaris [2] = organism: Canis familiaris; experiment: The compound was tested for clotting time thrombin(TCT); assay type: functional, Canis lupus familiaris
[3] = The compound was tested for clearance in dog plasma.; assay type: ADME, organism-based, Canis lupus familiaris
Canis familiaris [4] = organism: Canis familiaris; experiment: Vss in dog; assay type: ADME, organism-based, Canis lupus familiaris; details: in vivo
[5] = The compound was tested for maximum concentration ( Cmax ) in dog plasma.; assay type: ADME, organism-based, Canis lupus familiaris
[6] = The compound was tested for time taken to decrease, half of its initial concentration in dog plasma.; assay type: ADME, organism-based, Canis lupus familiaris
[7] = Percent oral bioavailability of intravenously administered compound (6 mg/kg) was tested in dog; assay type: ADME, organism-based, Canis lupus familiaris; details: in vivo, intravenous, read-out: Bioavailabiility
[8] = The compound was tested for its bioavailability in rabbit (by oral dosage).; assay type: ADME, organism-based, Oryctolagus cuniculus; details: in vivo
[9] = pKa was evaluated; assay type: physicochemical
[10] = Oral bioavailability in dog; assay type: ADME, organism-based, Canis lupus familiaris; details: in vivo
Oryctolagus cuniculus [11] = experiment: Prolongation of thrombin clotting time (to 1.9x over control), after peroral administration (30 mg/kg); assay type: functional
Canis familiaris [12] = experiment: Time at which maximal (1.6 fold increase) prolong clotting time was observed after peroral administration of compound (30 mg/kg) in dog; assay type: functional, Canis lupus familiaris
[13] = Dose at which bioavailability of perorally administered compound was tested in rabbit; assay type: ADME, organism-based, Oryctolagus cuniculus; details: in vivo, po
Oryctolagus cuniculus [14] = experiment: Prolongation of thrombin clotting time (to 1.9x over control), 60 min after peroral administration (30 mg/kg); assay type: functional
[15] = Dose at which bioavailability of intravenously administered compound was tested in rabbit; assay type: ADME, organism-based, Oryctolagus cuniculus; details: in vivo, iv
Prothrombin = Prothrombin (Homo sapiens, UniProt P00734); experiment: Inhibitory constant against human alpha thrombin
Canis familiaris [16] = experiment: Anticoagulation (1.6 fold increase) after peroral administration of compound (30 mg/kg); assay type: functional, Canis lupus familiaris
Canis familiaris [17] = experiment: Anticoagulation (1.2 fold increase) after peroral administration of compound (30 mg/kg); assay type: functional, Canis lupus familiaris
[18] = Percent oral bioavailability of perorally administered compound (30 mg/kg) was tested; assay type: ADME, organism-based; details: in vivo, read-out: Bioavailabiility
Canis familiaris [19] = organism: Canis familiaris; experiment: Vss was determined; assay type: ADME, organism-based, Canis lupus familiaris; details: dog, in vivo
Canis familiaris [20] = experiment: Time at which maximal (4 fold increase) prolong clotting time was observed after peroral administration of compound (30 mg/kg); assay type: functional, Canis lupus familiaris

logP [1]: 2.34
clearance [3]: 2.34 L/h/kg
Vss (Canis familiaris [4]): 3.5 k
Cmax [5]: 1.8 µM
half-life [6]: 21 h
bioavailability [7]: 23%
bioavailability [8]: 60%
pKa [9]: 8.71
bioavailability [10]: 23%
Dose [13]: 30 mg/kg
Dose [15]: 6 mg/kg
SMILES: Cc1cc(OCC/C=N/N=C(N)N)cc(OS(=O)(=O)c2ccccc2Cl)c1
TCT (Canis familiaris [2]): 34 s and 21 s
TCT (Oryctolagus cuniculus [11]): 26 s
Time (Canis familiaris [12]): 2 h
TCT (Oryctolagus cuniculus [14]): 50 s

Ki (Prothrombin): 0.0094 µM
SMILES: Cc1cc(OCC/C=N/N=C(N)N)cc(OS(=O)(=O)c2cccc(Cl)c2Cl)c1

Ki (Prothrombin): 0.011 µM
SMILES: COc1ccccc1S(=O)(=O)Oc1cc(C)cc(OCC/C=N/N=C(N)N)c1

Ki (Prothrombin): 0.011 µM
SMILES: Cc1cc(OCC/C=N/N=C(N)N)cc(OS(=O)(=O)c2ccccc2OC(F)(F)F)c1

Ki (Prothrombin): 0.044 µM
SMILES: Cc1cc(OCC/C=N/N=C(N)N)cc(OS(=O)(=O)c2cccc3ccccc23)c1

Ki (Prothrombin): 0.036 µM
SMILES: Cc1cc(OCC/C=N/N=C(N)N)cc(OS(=O)(=O)c2cccnc2)c1

Ki (Prothrombin): 0.42 µM
SMILES: Cc1cc(OCC/C=N/N=C(N)N)cc(OCc2ccccc2C(F)(F)F)c1

Ki (Prothrombin): 0.04 µM
SMILES: Cc1cc(OCC2(/C=N/N=C(N)N)CC2)cc(OS(=O)(=O)c2ccccc2C#N)c1

Ki (Prothrombin): 0.006 µM
SMILES: Cc1cc(OCC/C=N/N=C(N)N)cc(OS(=O)(=O)c2cccc(C)c2)c1

Ki (Prothrombin): 0.02 µM
SMILES: Cc1cc(OCC/C=N/N=C(N)N)cc(OS(=O)(=O)c2ccccc2S(C)(=O)=O)c1

Ki (Prothrombin): 0.99 µM
SMILES: COc1cc(CCC/C=N/N=C(N)N)cc(OS(=O)(=O)c2ccccc2Cl)c1

logP [1]: 2.11
clearance [3]: 4.74 L/h/kg
Cmax [5]: 0.9 µM
half-life [6]: 19 h
bioavailability [18]: 21%
pKa [9]: 8.84
Vss (Canis familiaris [19]): 23 k
bioavailability [10]: 21%
SMILES: Cc1cc(OCC/C=N/N=C(N)N)cc(OS(=O)(=O)c2ccccc2C#N)c1
Time (Canis familiaris [16]): 8 h
Time (Canis familiaris [17]): 24 h
Time (Canis familiaris [20]): 1 h

Ki (Prothrombin): > 1 µM
SMILES: COc1ccccc1S(=O)(=O)Oc1cc(C)cc(OC/C=N/N=C(N)N)c1
